The results in this text go back to patent US11078181B2, “Diaryl pyrazole compound and formulation for controlling harmful organisms” (Nippon Soda Co., Ltd., priority 2016, dated 2021).

What all share (assay type): in vivo
For assay [1], the system named is adult Phyllotreta striolata. Kind of assay: Efficacy test against Phyllotreta striolata (bok-choi seedling spray). To be noted: 168 h, sprayed on bok-choi seedlings, adults, 7 days after inoculation, read-out: insect mortality rate. How it is done: (§1) 5 parts of the compound of the present invention, 93.6 parts of dimethylformamide and 1.4 parts of polyoxyethylene alkyl aryl ether were mixed and dissolved to prepare Emulsion (I) including 5% of an active ingredient.
(§2) An insect mortality rate and a controlling rate were calculated by the numerical equations shown below. Insect mortality rate(%)={(Number of dead insects)/(Number of sample insects)}×100 Controlling rate={1−(Nt)/(Nc)}×100 • wherein • Nt: number of parasites in spray-treated area; and • Nc: number of parasites in non-treated area
Emulsion (I) was diluted with water so that the concentration of the compound of the present invention was 125 ppm, to prepare a diluted liquid for testing. The aforementioned diluted liquid was sprayed on bok-choi seedlings (7th major leaf-development period) planted in No. 3 pots. After the bok-choi seedlings were subjected to air-drying, the seedlings were placed in plastic cups, followed by inoculating 10 adult Phyllotreta striolata. […] Mortality was investigated 7 days after inoculation, and the insect mortality rate was calculated. […]
Emulsion (I) was diluted with water so that the concentration of the compound of the present invention was 8 ppm, to prepare a diluted liquid for testing. […] Mortality was investigated 7 days after inoculation, and the insect mortality rate was calculated. […]

Assay [2] relates to first-instar larvae of Culex pipiens molestus. The experiment in a line: Efficacy test against Culex pipiens molestus (larvae in chemical liquid). The following applies: 24 h, first-instar larvae in 100 mL chemical liquid, after one day, read-out: insect mortality rate. Here is the method: as §1, §2
Emulsion (I) was diluted with water so that the concentration of the compound of the present invention was 10 ppm, to prepare a chemical liquid for testing. 20 first-instar larvae of Culex pipiens molestus were released in 100 mL of the chemical liquid. After one day, the number of dead insects was counted, and the insect mortality rate was calculated. The test was performed twice.

Another assay deals with Aphis gossypii. The experiment in a line: Efficacy test against Aphis gossypii (cucumber seedling spray). The following applies: 96 h, sprayed on cucumber seedlings, nymphs, 4 days after spraying, read-out: insect mortality rate. Here is the method:
as §1, §2
Emulsion (I) was diluted with water so that the concentration of the compound of the present invention was 125 ppm. Cucumbers were raised in No. 3 pots and the first leaves were inoculated with nymphs of Aphis gossypii. The diluted emulsion mentioned above was sprayed onto the cucumber seedlings. The aforementioned cucumber seedlings were then placed in a thermostatic chamber with a temperature of 25° C. and humidity of 60%. Mortality was investigated 4 days after spraying was carried out, and the insect mortality rate of Aphis gossypii was calculated. The test was performed twice.

In another assay the test system is Nilaparvata lugens. The experiment in a line: Efficacy test against Nilaparvata lugens (rice seedling dip). The following applies: 168 h, rice seedlings soaked, second-instar larvae, 7 days after inoculation, read-out: insect mortality rate. How it is done:
as §1, §2
Emulsion (I) was diluted with water so that the concentration of the compound of the present invention was 125 ppm. Rice seedlings were soaked in the diluted liquid for 30 seconds, and subjected to air-drying. Subsequently, the rice seedlings were placed in plastic cases, followed by inoculating 5 second-instar larvae of Nilaparvata lugens. The plastic cases were placed in a thermostatic chamber at a temperature of 25° C. and humidity of 65%. Mortality was investigated 7 days after inoculation, and the insect mortality rate was calculated. The test was performed twice.

The subject of a further assay is Aphis craccivora. Kind of assay: Efficacy test against Aphis craccivora (black-eyed pea spray). The following applies: in Vigna unguiculata, 96 h, sprayed on black-eyed pea plants, nymphs, 4 days after spraying, read-out: insect mortality rate. Here is the method:
as §1, §2
Black-eyed pea plants were raised in No. 3 pots and the primary leaves were inoculated with nymphs of Aphis craccivora. Emulsion (I) was diluted with water so that the concentration of the compound of the present invention was 125 ppm. Subsequently, the aforementioned diluted liquid was sprayed on the black-eyed pea plants on which the nymphs of Aphis craccivora were parasitic. The aforementioned black-eyed pea plants were then placed in a thermostatic chamber with a temperature of 25° C. and humidity of 60%. Mortality was investigated 4 days after spraying was carried out, and the insect mortality rate of Aphis craccivora was calculated. The test was performed twice.

In a further assay the test system is Plutella xylostella. The experiment in a line: Efficacy test against Plutella xylostella (cabbage leaf dip). To be noted: foliar, 72 h, cabbage leaves soaked, second-instar larvae, 3 days after inoculation, read-out: insect mortality rate. Here is the method: as §1, §2
Emulsion (I) was diluted with water so that the concentration of the compound of the present invention was 125 ppm. Cabbage leaves were soaked in the diluted liquid for 30 seconds. Subsequently, the cabbage leaves were put on Petri dishes, followed by inoculating 5 second-instar larvae of Plutella xylostella. The Petri dishes were placed in a thermostatic chamber at a temperature of 25° C. and humidity of 60%. Mortality was investigated 3 days after inoculation, and the insect mortality rate was calculated. The test was performed twice.

For the compound `CCS(=O)(=O)c1ccc(-n2cncn2)nc1-n1ncc(-c2ccc(OC(F)(F)F)cc2)c1C` [1-1, 3-(ethylsulfonyl)-2-(5-methyl-4-(4-(trifluoromethoxy)phenyl)-1H-pyrazol-1-yl)-6-(1H-1,2,4-triazol-1-yl)pyridine], the mortality at 8 ppm in assay [1] (8 ppm) is not below 80%. Besides, the mortality at 125 ppm (in assay [1] (125 ppm); in the assay on Aphis gossypii; in the assay with Nilaparvata lugens; in the assay on Aphis craccivora; with Plutella xylostella) was not below 80% in each case. For the same compound, the mortality at 10 ppm in assay [2] amounted to 100%.

A word on the mortality: it is the share of the test organisms that died.
